{"source": "patent EP1101496A1", "about": "“THERAPEUTIC AGENTS FOR ALLERGIC DISEASES” (FUJI YAKUHIN KOGYO KABUSHIKI KAISHA, priority 1998, dated 2000)", "key": {"[1]": {"system": "IgE-mediated auricle edema", "assay": "Auricle edema in experimental atopic dermatitis model (anti-DNP IgE sensitization, DNFB elicitation)", "assay_type": "in vivo, Balb/c mice", "details": "for % Inhibition vLPR: 7 or 8 days post-elicitation; for % Inhibition vLPR / % Inhibition IPR / % Inhibition LPR: painted on auricles 60 µg/ear/dose in ethanol twice a day; for % Inhibition IPR: 1 hour post-elicitation, 1 hour pre-elicitation to 6 days post-elicitation; for % Inhibition LPR: 1 day post-elicitation", "experimental": "Intravenous injection of an anti-2,4-dinitrophenol (DNP) antibody (anti-DNP Ab, monoclonal IgE Ab; its antibody titer was 1 : 512 to 1 : 1024 by a rat heterologous passive cutaneous anaphylaxis reaction using a Wister rat) into a tail vein of female Balb/c mice (7-week old, body weight: 17 to 20 g, purchased from JAPAN SLC, Inc.) at a dose of […] per animal raised passive sensitization. Twenty four hours post-sensitization, 0.1% 2,4-dinitrofluorobenzene (DNFB; Nacalai Tesque, Inc.) in ethanol was painted onto both sides of a pair of mouse auricles at a dose of 10 µL per each side for elicitation.\nFresh unsensitized mice were painted with 0.1% DNFB in ethanol onto their ear in the same manner as aforementioned and served as a control group. Not only immediately prior to elicitation but also 1 hour, 5 hours, daily between Days 1 and 14, and on Day 16 post-elicitation, ear thickness was measured using a dial thickness gauge (Peacock Co.). Each degree of auricle edemas was calculated: Auricular Edema (µm)=(Ear Thickness Post-Elicitation, µm) - (Ear Thickness immediately prior to Elicitation, µm) [formula]\nBalb/c mice were passively sensitized with anti-DNP IgE Ab in the same manner as in Example 1. Twenty four hours later, 0.1% DNFB in ethanol was painted onto both sides of a pair of mouse auricles at a dose of 10 µL per each side for elicitation.\nImmediately prior to elicitation, 1 hour and on Day 1 post-elicitation, auricle thickness was measured in the same manner as in Example 1. Each therapeutic efficacy is recorded as a percent inhibition wherein the \"auricle edema (untreated group)\" is used as a control. Auricle Edema Inhibition (%) = [ 1 -(Auricle Edema (Treated Group))/(Auricle Edema (Untreated Group))] × 100 (%) [formula]\n(§1) Mice were sensitized with anti-DNP IgE Ab and then elicited by painting 0.1% DNFB in ethanol onto both sides of a pair of mouse auricles at a dose of 10 µL per each side 24 hours post-sensitization in the same manner as in Example 1. […] Immediately prior to elicitation, and on Day 7 post-elicitation, auricle thickness was similarly measured. Each therapeutic efficacy is recorded as a percent inhibition wherein the auricle edema in the untreated group is used as a control.\nas §1, with “(untreated group)” for “in the untreated group”\nMice were sensitized with anti-DNP IgE Ab and then elicited by painting 0.1% DNFB in ethanol onto both sides of a pair of mouse auricles at a dose of 10 µL per each side 24 hours post-sensitization in the same manner as in Example 1. […] Immediately prior to elicitation, at 1 and 4 hours and on Days 1, 3 and 7 post-elicitation, auricle thickness was similarly measured. From each auricle edema (µm) based on the auricle thickness immediately prior to elicitation, especially a prophylactically therapeutic efficacy of the test compound was evaluated.\nMice were sensitized with anti-DNP IgE Ab and then elicited by painting 0.1% DNFB in ethanol onto both sides of a pair of mouse auricles at a dose of 10 µL per each side 24 hours post-sensitization in the same manner as in Example 1. A solution of a test metalloproteinase inhibitor (Compound No. 8; 50 µg/ear/dose, twice a day) in ethanol was painted onto both sides of a pair of the mouse auricles 1 hour pre-elicitation, 0.25, 3, 4, 5 and 6 days post-elicitation (5 animals per group). Immediately prior to elicitation, at 0.5, 1 and 4 hours and on Days 1, 3 and 7 post-elicitation, auricle thickness was similarly measured. Each amount of auricle edemas was calculated (average± standard deviation). […]"}, "[2]": {"system": "Allergic Peritonitis", "assay": "Allergic peritonitis induced by ovalbumin", "assay_type": "in vivo, male Balb/c mice", "details": "for inhibition of infiltration of lymphocytes/macrophages into the peritoneal cavity: ovalbumin challenge", "experimental": "In the same manner as in Example 23, mice were actively sensitized with ovalbumin and Alum, and, on Day 14 after the initial sensitization, elicited with an inducing antigen solution. A test metalloproteinase inhibitor compound (Compound No. 20: 30 mg/kg) or a negative control solvent, physiological saline (10 mL/kg), was administered subcutaneously to each animal 6, 3 hours, and 5 minutes pre-induction, 3, and 6 hours post-induction. At 24 hours post-induction, a physiological saline (containing heparin) was injected intraperitoneally at 4 mL/mouse for peritoneal lavage. An aliquot of the retrieved washout medium was taken, and not only measured for a PEC density but also stained for PEC followed by fractional counting. Each effect of the compound on the total PEC number (PEC density× 4 mL), and eosinophils and lymphocytes/macrophages is shown in Table 15. Almost similarly to Examples 22 to 24, the total PEC number and the numbers of eosinophils and lymphocytes/macrophages in the peritoneal cavity are reduced.\nEach efficacy on intraperitoneal exudation of neutrophils was examined according to the methods as disclosed in Ouchi et al., \"Seibutsu Yakukagaku Jikken Koza, Ensho To Allergy (Inflammation and Allergy) I-3\", pp.139 to 151, Hirokawa Publishing Co., Japan and Spicer et al., The International Archives of Allergy and Applied Immunology, 81: 81 to 84, 1986.\nIn the same manner as in Example 23, male Balb/c mice were sensitized with ovalbumin and an aluminum hydroxide gel, and, on Day 14 after the initial sensitization, elicited with an antigen solution to raise allergic peritonitis. Each test metalloproteinase inhibitor (Compound No. 20 or 21: 30 mg/kg) or a negative control solvent, physiological saline (10 mL/kg), was administered subcutaneously to each animal 1 hour prior to induction, and 3 hours post-induction. At 6 hours post-induction, peritoneal lavage was done similarly to Example 22, measured for a PEC density, and counted for the total PEC number. In the same manner as in Example 22, PEC was stained, and subjected to fractional counting under a microscope with classification into neutrophils, eosinophils, lymphocytes/macrophages and basophils based on their form and stain nature. Each cell ratio was as follows: 2.3% (neutrophil), 1.1% (eosinophil), 95.4% (lymphocyte/macrophage), and 1.2% (basophil) for unsensitized/physiological saline-administered mice; and 5.7% (neutrophil), 11.9% (eosinophil), 81.3% (lymphocyte/macrophage), and 1.1% (basophil) for sensitized/physiological saline-administered mice. By a similar line of reasoning in Example 22, basophils were excluded from subjects to be examined. In the same manner as in Example 22, intraperitoneal exudation inhibition rates were calculated and expressed as the therapeutic efficacies."}, "[3]": {"details": "30 mg/kg s.c. 6, 3 hours and 5 minutes pre-induction, 3 and 6 hours post-induction, 24 hours post-induction (Example 25)"}, "[4]": {"details": "30 mg/kg s.c. 1 hour prior to and 3 hours post-induction, 6 hours post-induction (Example 26)"}}, "data": [{"compound": "CNC(=O)[C@H](Cc1ccc(NC(=N)N)cc1)NC(=O)[C@H](CC(C)C)C(CCCc1ccccc1)C(=O)NO", "note": "(single isomer, unassigned) [Compound No. 8, N-[4-(N-hydroxyamino)-2(R)-isobutyl-3(R or S)-(3-phenyltrimethylene)succinyl]-L-4'-guanidophenylalanine-N-methylamide 1 acetate]", "values": [{"measurement": "inhibitory efficacy on IgE-mediated auricle edema in IPR, LPR and vLPR (FIG. 6)", "setting": "[1]; 60 mg/kg s.c. only 24 and 2 hours prior to elicitation, compared with prednisolone 10 mg/kg i.p.", "result": "edema-inhibitory activity equivalent to that of prednisolone in IPR and slightly and markedly higher than that of prednisolone in LPR and vLPR"}, {"measurement": "inhibitory efficacy on IgE-mediated auricle edema in IPR, LPR and vLPR (FIG. 7)", "setting": "[1]; painted on auricles, 50 µg/ear/dose in ethanol, 1 hour pre-elicitation and 0.25, 3, 4, 5, 6 days post-elicitation", "result": "endowed with an inhibitory activity on edemas in any of IPR, LPR, and vLPR"}, {"measurement": "inhibition of infiltration of lymphocytes/macrophages into the peritoneal cavity", "setting": "[2]; 30 mg/kg i.p. 5 minutes prior to and 3 and 6 hours post-induction (Example 23)", "result": 74.9, "unit": "%"}, {"measurement": "inhibition of infiltration of lymphocytes/macrophages into the peritoneal cavity", "setting": "[2]; 30 mg/kg s.c. 6 hours and 5 minutes prior to induction, 24 hours after induction (Example 24)", "result": 91.2, "unit": "%"}]}, {"compound": "CNC(=O)[C@H](Cc1ccc(NC(=N)N)cc1)NC(=O)[C@H](CC(C)C)C(CCCc1ccccc1)C(=O)NO.Cl", "note": "(single isomer, unassigned) [Compound No. 20, N-[4-(N-hydroxyamino)-2(R)-isobutyl-3(R or S)-(3-phenyltrimethylene)succinyl]-L-4'-guanidophenylalanine-N-methylamide 1 hydrochloride]", "values": [{"measurement": "% Inhibition vLPR", "setting": "[1]", "result": 31, "unit": "%"}, {"measurement": "% Inhibition IPR", "setting": "[1]", "result": 56, "unit": "%"}, {"measurement": "% Inhibition LPR", "setting": "[1]", "result": 58, "unit": "%"}, {"measurement": "Leukocyte exudate inhibition rate (%) (Macrophages)/(Lymphocytes)", "setting": "[2]; [3]", "result": 55.1, "unit": "%"}, {"measurement": "Leukocyte exudate inhibition rate (%) Eosinophils", "setting": "[2]; [3]", "result": 38.9, "unit": "%"}, {"measurement": "Leukocyte exudate inhibition rate (%) Total PEC Number", "setting": "[2]; [3]", "result": 49.6, "unit": "%"}, {"measurement": "Leukocyte exudate inhibition rate (%) Eosinophils", "setting": "[2]; [4]", "result": 38.4, "unit": "%"}, {"measurement": "Leukocyte exudate inhibition rate (%) Neutrophils", "setting": "[2]; [4]", "result": 41.4, "unit": "%"}, {"measurement": "Leukocyte exudate inhibition rate (%) Total PEC Number", "setting": "[2]; [4]", "result": 40.9, "unit": "%"}]}, {"compound": "CNC(=O)[C@H](Cc1ccc(N=C(N)N)cc1)NC(=O)[C@@H](CC(=O)NO)CC(C)C.O=S(=O)(O)O", "note": "[Compound No. 21, N-[4-(N-hydroxyamino)-2(R)-isobutylsuccinyl]-L-4'-guanidophenylalanine-N-methylamide 1 sulfate]", "values": [{"measurement": "% Inhibition vLPR", "setting": "[1]", "result": 35, "unit": "%"}, {"measurement": "% Inhibition IPR", "setting": "[1]", "result": 31, "unit": "%"}, {"measurement": "% Inhibition LPR", "setting": "[1]", "result": 22, "unit": "%"}, {"measurement": "Leukocyte exudate inhibition rate (%) Neutrophils", "setting": "[2]; [4]", "result": 27.1, "unit": "%"}, {"measurement": "Leukocyte exudate inhibition rate (%) Total PEC Number", "setting": "[2]; [4]", "result": 38.6, "unit": "%"}]}]}
